Assay results reported in patent US6387850B1, “Pesticide composition and method” (Application Technologies, Inc., priority 1998, dated 2002).

How the values were obtained:
Experiment in all cases: Field weed control in glyphosate-tolerant soybeans, visual rating
Type in all cases: in vivo
Conditions in all cases: 23 days after application, scale 0 = no, 10 = complete weed control
[1] = tested on: giant foxtail (Setaria faberii)
Excerpt: (§1) Materials and Methods: Applications were made to glyphosate-tolerant soybeans on Jun. 10, 1998. Weed species present ranging in height from 5 to 20 cm included giant foxtail (Setaria faberii), barnyard grass (Echinochloa crus-galli), volunteer corn (Zea mays) and yellow foxtail (Setaria glauca) Treatments were applied using Spraying Systems Turbo TeeJet TT-11002 nozzles spaced 50 cm apart on the spray boom at 207 kPa spray pressure resulting in a spray volume application of […] liters per hectare.
(§2) Spray solutions consisted of two comparison levels of mineral hardness as measured by TDS in ppm. The original solution consisted of 10 ppm. The second solution measuring 400 ppm was established using calcium chloride at approximately 227 grams per 378 liters.
(§3) Herbicide applications of glyphosate in form of Roundup Ultra® (Monsanto Company) formulation were applied at four rates: 26, 53, 105 and 210 grams of acid equivalent per hectare (g ae/ha) A spray adjuvant, Array® at 4 kilograms per 378 liters of spray solution was added to the spray solution prior to the addition of the herbicide. Array was evaluated across herbicide and spray solution treatments. Array consists of a micro-homogenized combination of AMS (ammonium sulfate) fertilizer at 94.4% analysis 21-0-0-24 (nitrogen-phosphorus-potassium-sulfur) and DR 2000 (Rhodia Surfactants) at 5.6%, a short-chain guar-based polymer.

[2] = tested on: volunteer corn (Zea mays)
Excerpt: as §1, §2, §3

[3] = tested on: barnyard grass (Echinochloa crus-galli)
Excerpt: as §1, §2, §3

[4] = tested on: yellow foxtail (Setaria glauca)
Excerpt: as §1, §2, §3

[5] = 26 g ae/ha, solution TDS 10 ppm, Array 4 kg/378 L Yes
[6] = 26 g ae/ha, solution TDS 10 ppm, Array No
[7] = 26 g ae/ha, solution TDS 400 ppm, Array 4 kg/378 L Yes
[8] = 26 g ae/ha, solution TDS 400 ppm, Array No
[9] = 53 g ae/ha, solution TDS 10 ppm, Array 4 kg/378 L Yes
[10] = 53 g ae/ha, solution TDS 10 ppm, Array No
[11] = 53 g ae/ha, solution TDS 400 ppm, Array 4 kg/378 L Yes
[12] = 53 g ae/ha, solution TDS 400 ppm, Array No
[13] = 105 g ae/ha, solution TDS 10 ppm, Array 4 kg/378 L Yes
[14] = 105 g ae/ha, solution TDS 10 ppm, Array No
[15] = 105 g ae/ha, solution TDS 400 ppm, Array 4 kg/378 L Yes
[16] = 105 g ae/ha, solution TDS 400 ppm, Array No
[17] = 210 g ae/ha, solution TDS 10 ppm, Array 4 kg/378 L Yes
[18] = 210 g ae/ha, solution TDS 10 ppm, Array No
[19] = 210 g ae/ha, solution TDS 400 ppm, Array 4 kg/378 L Yes
[20] = 210 g ae/ha, solution TDS 400 ppm, Array No

**Q.** For `O=C(O)CNCP(=O)(O)O` [Glyphosate, glyphosate], which “Visual rating of weed control, Giant Foxtail” value (“Visual rating … Giant Foxtail” for short) [1, 5] is on record?
**A.** 3

**Q.** And the “Visual rating … Giant Foxtail” value [1, 6]?
**A.** 2

**Q.** And the “Visual rating … Giant Foxtail” value [1, 7]?
**A.** 1

**Q.** And the “Visual rating … Giant Foxtail” value [1, 8]?
**A.** 0

**Q.** And the “Visual rating … Giant Foxtail” value [1, 9]?
**A.** 4

**Q.** What about the “Visual rating … Giant Foxtail” value [1, 10] of the same compound?
**A.** 3

**Q.** And the “Visual rating … Giant Foxtail” value [1, 11]?
**A.** 2

**Q.** And the “Visual rating … Giant Foxtail” value [1, 12]?
**A.** 1

**Q.** What about the “Visual rating … Giant Foxtail” value [1, 13] of the same compound?
**A.** 8

**Q.** What about the “Visual rating … Giant Foxtail” value [1, 14] of the same compound?
**A.** 6

**Q.** And the “Visual rating … Giant Foxtail” value [1, 15]?
**A.** 3

**Q.** And the “Visual rating … Giant Foxtail” value [1, 16]?
**A.** 2

**Q.** And the “Visual rating … Giant Foxtail” value [1, 17]?
**A.** 10

**Q.** And the “Visual rating … Giant Foxtail” value [1, 18]?
**A.** 9

**Q.** And the “Visual rating … Giant Foxtail” value [1, 19]?
**A.** 6

**Q.** What about the “Visual rating … Giant Foxtail” value [1, 20] of the same compound?
**A.** 5

**Q.** And the “Visual rating of weed control, Volunteer Corn” value (“Visual rating … Volunteer Corn” below) [2, 5]?
**A.** 2

**Q.** And the “Visual rating … Volunteer Corn” value [2, 6]?
**A.** 1

**Q.** What about the “Visual rating … Volunteer Corn” value [2, 7] of the same compound?
**A.** 1

**Q.** What about the “Visual rating … Volunteer Corn” value [2, 8] of the same compound?
**A.** 0

**Q.** And the “Visual rating … Volunteer Corn” value [2, 9]?
**A.** 4

**Q.** What about the “Visual rating … Volunteer Corn” value [2, 10] of the same compound?
**A.** 3

**Q.** What about the “Visual rating … Volunteer Corn” value [2, 11] of the same compound?
**A.** 2

**Q.** And the “Visual rating … Volunteer Corn” value [2, 12]?
**A.** 1

**Q.** What about the “Visual rating … Volunteer Corn” value [2, 13] of the same compound?
**A.** 8

**Q.** And the “Visual rating … Volunteer Corn” value [2, 14]?
**A.** 5

**Q.** What about the “Visual rating … Volunteer Corn” value [2, 15] of the same compound?
**A.** 3

**Q.** And the “Visual rating … Volunteer Corn” value [2, 16]?
**A.** 2

**Q.** And the “Visual rating … Volunteer Corn” value [2, 17]?
**A.** 10

**Q.** And the “Visual rating … Volunteer Corn” value [2, 18]?
**A.** 9

**Q.** What about the “Visual rating … Volunteer Corn” value [2, 19] of the same compound?
**A.** 6

**Q.** And the “Visual rating … Volunteer Corn” value [2, 20]?
**A.** 5

**Q.** And the “Visual rating of weed control, Barnyard Grass” value (“Visual rating … Barnyard Grass” below) [3, 5]?
**A.** 3

**Q.** And the “Visual rating … Barnyard Grass” value [3, 6]?
**A.** 2

**Q.** And the “Visual rating … Barnyard Grass” value [3, 7]?
**A.** 1

**Q.** What about the “Visual rating … Barnyard Grass” value [3, 8] of the same compound?
**A.** 0

**Q.** What about the “Visual rating … Barnyard Grass” value [3, 9] of the same compound?
**A.** 5

**Q.** And the “Visual rating … Barnyard Grass” value [3, 10]?
**A.** 4

**Q.** What about the “Visual rating … Barnyard Grass” value [3, 11] of the same compound?
**A.** 2

**Q.** And the “Visual rating … Barnyard Grass” value [3, 12]?
**A.** 1

**Q.** And the “Visual rating … Barnyard Grass” value [3, 13]?
**A.** 7

**Q.** What about the “Visual rating … Barnyard Grass” value [3, 14] of the same compound?
**A.** 5

**Q.** What about the “Visual rating … Barnyard Grass” value [3, 15] of the same compound?
**A.** 3

**Q.** What about the “Visual rating … Barnyard Grass” value [3, 16] of the same compound?
**A.** 2

**Q.** And the “Visual rating … Barnyard Grass” value [3, 17]?
**A.** 10

**Q.** What about the “Visual rating … Barnyard Grass” value [3, 18] of the same compound?
**A.** 9

**Q.** And the “Visual rating … Barnyard Grass” value [3, 19]?
**A.** 6

**Q.** And the “Visual rating … Barnyard Grass” value [3, 20]?
**A.** 5

**Q.** What about the “Visual rating of weed control, Yellow Foxtail” value (“Visual rating … Yellow Foxtail” below) [4, 5] of the same compound?
**A.** 2

**Q.** What about the “Visual rating … Yellow Foxtail” value [4, 6] of the same compound?
**A.** 2

**Q.** And the “Visual rating … Yellow Foxtail” value [4, 7]?
**A.** 1

**Q.** What about the “Visual rating … Yellow Foxtail” value [4, 8] of the same compound?
**A.** 0

**Q.** And the “Visual rating … Yellow Foxtail” value [4, 9]?
**A.** 4

**Q.** What about the “Visual rating … Yellow Foxtail” value [4, 10] of the same compound?
**A.** 3

**Q.** And the “Visual rating … Yellow Foxtail” value [4, 11]?
**A.** 2

**Q.** What about the “Visual rating … Yellow Foxtail” value [4, 12] of the same compound?
**A.** 1

**Q.** And the “Visual rating … Yellow Foxtail” value [4, 13]?
**A.** 7

**Q.** And the “Visual rating … Yellow Foxtail” value [4, 14]?
**A.** 5

**Q.** What about the “Visual rating … Yellow Foxtail” value [4, 15] of the same compound?
**A.** 3

**Q.** And the “Visual rating … Yellow Foxtail” value [4, 16]?
**A.** 2

**Q.** What about the “Visual rating … Yellow Foxtail” value [4, 17] of the same compound?
**A.** 9

**Q.** And the “Visual rating … Yellow Foxtail” value [4, 18]?
**A.** 8

**Q.** What about the “Visual rating … Yellow Foxtail” value [4, 19] of the same compound?
**A.** 5

**Q.** And the “Visual rating … Yellow Foxtail” value [4, 20]?
**A.** 5
